Measurements: patent US9409952B2, “Peptide-compound cyclization method” (Chugai Seiyaku Kabushiki Kaisha, priority 2011, dated 2016)
Like-named read-outs stand apart in the source and are kept apart here. Starred links: 1 amine or outer side, 2 acyl side, 3 side chain; linkers in the order of their positions; H or OH if unused. Positions of bridges follow the written chain, without caps; N, C: chain ends. Non-standard residues stand in square brackets, D forms with d. Residues, ends and D or L forms follow the SMILES beside them. *: point of attachment. Phe(4-(CH2)5CO) = O=C([C@H](Cc1ccc(CCCCCC(=O)[*:3])cc1)N[*:1])[*:2]; Phe(3-(CH2)4CO) = O=C([C@H](Cc1cccc(CCCCC(=O)[*:3])c1)N[*:1])[*:2]; Ala(4-thiazolyl) = N[C@@H](Cc1cscn1)C(=O)O; NEtPhe = CCN[C@@H](Cc1ccccc1)C(=O)O; NMeF = CN[C@@H](Cc1ccccc1)C(=O)O; NMeI = CC[C@H](C)[C@H](NC)C(=O)O; NMeL = CN[C@@H](CC(C)C)C(=O)O; Ala(CN) = N#CC[C@H](N)C(=O)O; NMeV = CN[C@H](C(=O)O)C(C)C; Pip = O=C(O)[C@@H]1CCCCN1; NMeA = CN[C@@H](C)C(=O)O; Piperidide = C1CCN(*)CC1; NPrGly = CCCNCC(=O)O; Sar = CNCC(=O)O; tBu = CC(C)(C)*

Assay: Metabolic stability in human hepatic microsome
Assay type: in vitro ADME
[1] = human, microsomes, pH 7.4, CL NADPH(+)
[2] = microsomes, pH 7.4, human hepatic microsome, NADPH(+), read-out: CL NADPH(+)

SMILES	microsomal CLint at 1 uM [2]	further results
CC(C)C[C@@H]1NC(=O)[C@H](C)N(C)C(=O)[C@H](C(C)C)N(C)C(=O)[C@H](Cc2ccccc2)NC(=O)CN(C)C(=O)[C@H]([C@@H](C)O)NC(=O)[C@@H]2CCCN2C(=O)[C@H](CC(C)C)NC(=O)[C@H](C)NC(=O)C[C@@H](C(=O)N2CCCCC2)NC(=O)[C@H](CC(C)C)N(C)C1=O [DP-32] (ALPT[Sar]F[NMeV][NMeA]L[NMeL]D-Piperidide; lactam N-11)	–	microsomal CLint at 1 uM [1]: 26 µL/min/mg
CC(C)C[C@H]1C(=O)N(C)[C@@H](CC(C)C)C(=O)N[C@@H](C)C(=O)N[C@H](C(=O)N(C)[C@@H](Cc2ccccc2)C(=O)N[C@@H](C)C(=O)N2CCCCC2)CC(=O)N[C@@H](C)C(=O)N[C@@H](Cc2ccccc2)C(=O)N(C)[C@@H](CC(C)C)C(=O)N[C@@H](CC#N)C(=O)N(C)[C@@H](Cc2ccccc2)C(=O)N[C@@H](C)C(=O)N1C [DP-613] (AF[NMeL][Ala(CN)][NMeF]A[NMeL][NMeL]AD[NMeF]A-Piperidide; lactam N-10)	37 µL/min/mg	–
CC(C)C[C@H]1C(=O)N(C)[C@@H](Cc2ccccc2)C(=O)N[C@@H](C)C(=O)N2CCC[C@H]2C(=O)N(C)[C@@H](CC(C)C)C(=O)N(C)[C@@H](Cc2ccccc2)C(=O)N(C)[C@@H](C(C)C)C(=O)N[C@H](C(=O)N2CCCCC2)CC(=O)N[C@H](C)C(=O)N[C@@H]([C@@H](C)O)C(=O)N(C)CC(=O)N1C [DP-141] ([dA]T[Sar][NMeL][NMeF]AP[NMeL][NMeF][NMeV]D-Piperidide; lactam N-11)	77 µL/min/mg	–
CCCN1CC(=O)N[C@@H](COC(C)(C)C)C(=O)N(C)CC(=O)N(C)[C@@H](CC(C)C)C(=O)N[C@@H]([C@@H](C)O)C(=O)N(C)[C@@H](Cc2ccccc2)C(=O)N(C)[C@@H](CC(C)C)C(=O)N(C)[C@@H]([C@@H](C)CC)C(=O)N(C)[C@@H](C)C(=O)N[C@H](C(=O)N2CCCCC2)CC1=O [DP-634] ([NPrGly]S(tBu)[Sar][NMeL]T[NMeF][NMeL][NMeI][NMeA]D-Piperidide; lactam N-10)	32 µL/min/mg	–
C=C1CCC(=O)N[C@@H](CC(C)C)C(=O)N[C@@H](C(C)C)C(=O)N(C)[C@@H](CC(C)C)C(=O)N[C@@H](Cc2ccccc2)C(=O)N(C)[C@@H](Cc2ccccc2)C(=O)N[C@@H]([C@@H](C)CC)C(=O)N(C)[C@@H](C)C(=O)N[C@@H](CC(C)C)C(=O)N[C@@H]([C@@H](C)O)C(=O)N[C@H](C(=O)N2CCCCC2)Cc2cccc1c2 [DP-890]	47 µL/min/mg	–
CC[C@H](C)[C@H]1C(=O)N2CCC[C@H]2C(=O)N(C)CC(=O)N[C@@H]([C@@H](C)O)C(=O)N[C@H](C(=O)N2CCCCC2)CC(=O)N[C@@H](C)C(=O)N[C@@H](C(C)C)C(=O)N(C)[C@@H](CC(C)C)C(=O)N(C)[C@@H](CC(C)C)C(=O)N(C)[C@@H](Cc2ccccc2)C(=O)N[C@@H](Cc2ccccc2)C(=O)N1C [DP-15] (AV[NMeL][NMeL][NMeF]F[NMeI]P[Sar]TD-Piperidide; lactam N-11)	–	microsomal CLint at 1 uM [1]: 34 µL/min/mg
CC[C@H](C)[C@H]1C(=O)NCC(=O)N(C)[C@@H](CC(C)C)C(=O)N[C@@H]([C@@H](C)O)C(=O)N2CCCC[C@H]2C(=O)N[C@@H](Cc2ccccc2)C(=O)N[C@H](C(=O)N2CCCCC2)CC(=O)N(C)[C@@H](C)C(=O)N[C@@H](Cc2ccccc2)C(=O)N(C)[C@@H](CC(C)C)C(=O)N[C@@H](CC(C)C)C(=O)N1C [DP-559] ([NMeA]F[NMeL]L[NMeI]G[NMeL]T[Pip]FD-Piperidide; lactam N-11)	145 µL/min/mg	–
CC[C@H](C)[C@@H]1NC(=O)[C@H](Cc2ccccc2)N(C)C(=O)[C@H](Cc2ccccc2)NC(=O)[C@H](CC(C)C)N(C)C(=O)[C@H](CC(C)C)NC(=O)[C@H](C)NC(=O)C[C@@H](C(=O)N2CCCCC2)NC(=O)[C@H]([C@@H](C)O)NC(=O)[C@@H]2CCCN2C1=O [DP-33] (AL[NMeL]F[NMeF]IPTD-Piperidide; lactam N-9)	–	microsomal CLint at 1 uM [1]: 202 µL/min/mg
CC[C@H](C)[C@@H]1NC(=O)[C@H](Cc2ccccc2)N(C)C(=O)[C@H](Cc2ccccc2)NC(=O)[C@H](CC(C)C)N(C)C(=O)[C@H](C(C)C)NC(=O)[C@H](CC(C)C)NC(=O)CCCCCc2ccc(cc2)C[C@@H](C(=O)N2CCCCC2)NC(=O)[C@H]([C@@H](C)O)NC(=O)[C@H](CC(C)C)NC(=O)[C@H](C)N(C)C1=O [DP-892] (LV[NMeL]F[NMeF]I[NMeA]LT[Phe(4-(CH2)5CO)]-Piperidide; lactam N-10)	57 µL/min/mg	–
CC[C@H](C)[C@H](NC(=O)[C@H](Cc1ccccc1)N(C)C(=O)[C@@H]1CC(=O)N(C)[C@@H](C)C(=O)N[C@@H](Cc2ccccc2)C(=O)N(C)[C@@H](CC(C)C)C(=O)N(C)[C@@H](CC(C)C)C(=O)N[C@@H](Cc2ccccc2)C(=O)N(C)[C@@H](CC(C)C)C(=O)N[C@@H]([C@@H](C)CC)C(=O)N2CCC[C@H]2C(=O)N[C@@H]([C@@H](C)O)C(=O)N[C@@H](CC(C)C)C(=O)N1)C(=O)N1CCCCC1 [DP-962] ([NMeA]F[NMeL][NMeL]F[NMeL]IPTLD[NMeF]I-Piperidide; lactam N-11)	–	microsomal CLint at 1 uM [1]: 22 µL/min/mg
CC[C@H](C)[C@H]1C(=O)N(C)[C@@H](C)C(=O)N(C)[C@@H](Cc2ccccc2)C(=O)N[C@@H]([C@@H](C)O)C(=O)N(C)[C@@H](Cc2ccccc2)C(=O)N(C)[C@@H](CC(C)C)C(=O)N2CCC[C@H]2C(=O)N[C@H](C(=O)N2CCCCC2)Cc2cccc(c2)CCCCC(=O)NCC(=O)N(C)[C@@H](CC(C)C)C(=O)N1C [DP-860] (G[NMeL][NMeI][NMeA][NMeF]T[NMeF][NMeL]P[Phe(3-(CH2)4CO)]-Piperidide; lactam N-10)	322 µL/min/mg	–
CCN1C(=O)[C@H](Cc2ccccc2)N(C)C(=O)CN(C)C(=O)[C@H]([C@@H](C)O)NC(=O)[C@H](C)N(C)C(=O)C[C@@H](C(=O)N2CCCCC2)NC(=O)[C@H](C(C)C)N(C)C(=O)[C@H](C)NC(=O)[C@H](CC(C)C)N(C)C(=O)[C@@H]2CCCN2C(=O)[C@H](CC(C)C)N(C)C(=O)[C@@H]1Cc1ccccc1 [DP-632] ([NMeA]T[Sar][NMeF][NEtPhe][NMeL]P[NMeL]A[NMeV]D-Piperidide; lactam N-11)	–	microsomal CLint at 1 uM [1]: 41 µL/min/mg
CC[C@H](C)[C@H]1C(=O)NCC(=O)N2CCCC[C@H]2C(=O)N[C@@H]([C@@H](C)O)C(=O)N2CCC[C@H]2C(=O)N[C@@H](Cc2ccccc2)C(=O)N[C@H](C(=O)N2CCCCC2)CC(=O)N(C)[C@@H](C)C(=O)N[C@@H](Cc2ccccc2)C(=O)N(C)[C@@H](CC(C)C)C(=O)N[C@@H](CC(C)C)C(=O)N1C [DP-557] ([NMeA]F[NMeL]L[NMeI]G[Pip]TPFD-Piperidide; lactam N-11)	96 µL/min/mg	–
CC(C)C[C@@H]1NC(=O)[C@H](CC(C)C)N(C)C(=O)[C@H](CC(C)C)N(C)C(=O)CNC(=O)[C@H](Cc2ccccc2)N(C)C(=O)[C@H](Cc2cscn2)NC(=O)[C@H](CC(C)C)N(C)C(=O)[C@H](Cc2ccccc2)NC(=O)[C@H](C)NC(=O)C[C@@H](C(=O)N(C)[C@@H](Cc2ccccc2)C(=O)N[C@@H](C)C(=O)N2CCCCC2)NC1=O [DP-609] (AF[NMeL][Ala(4-thiazolyl)][NMeF]G[NMeL][NMeL]LD[NMeF]A-Piperidide; lactam N-10)	16 µL/min/mg	–
CC[C@H](C)[C@H]1C(=O)N[C@H](C(=O)N2CCCCC2)CC(=O)N[C@@H](C)C(=O)N(C)[C@@H](C)C(=O)N(C)[C@@H](Cc2ccccc2)C(=O)N(C)[C@@H](CC(C)C)C(=O)N[C@@H]([C@@H](C)O)C(=O)N(C)CC(=O)N(C)[C@@H](CC(C)C)C(=O)N[C@@H](COC(C)(C)C)C(=O)N1C [Compound P-125, Ala-MeAla-MePhe-MeLeu-Thr-MeGly-MeLeu-Ser(tBu)-MeIle-Asp-piperidine] (A[NMeA][NMeF][NMeL]T[Sar][NMeL]S(tBu)[NMeI]D-Piperidide; lactam N-10)	–	Hepatic microsome CLhint (Human) In the absence of NADPH: 1 ul/min/mg Protein; Hepatic microsome CLhint (Human) In the presence of NADPH (Table 10, with NADPH): 35 ul/min/mg Protein
CC(C)C[C@@H]1NC(=O)[C@H](Cc2ccccc2)N(C)C(=O)[C@H](C)N(C)C(=O)C[C@@H](C(=O)N2CCCCC2)NC(=O)[C@H]([C@@H](C)O)NC(=O)[C@H](CC(C)C)N(C)C(=O)[C@H](Cc2ccccc2)NC(=O)[C@H](CC(C)C)N(C)C(=O)[C@H](CC(C)C)N(C)C1=O [DP-494] ([NMeA][NMeF]L[NMeL][NMeL]F[NMeL]TD-Piperidide; lactam N-9)	330 µL/min/mg	–
C=C1CCC(=O)N[C@@H](CC(C)C)C(=O)N2CCC[C@H]2C(=O)N(C)[C@@H](C(C)C)C(=O)N[C@@H](Cc2ccccc2)C(=O)N(C)[C@@H](Cc2ccccc2)C(=O)N(C)[C@@H](CC(C)C)C(=O)N[C@@H](C)C(=O)N(C)[C@@H]([C@@H](C)CC)C(=O)N[C@H](C(=O)N2CCCCC2)Cc2cccc1c2 [DP-870]	474 µL/min/mg	–
CC[C@H](C)[C@@H]1NC(=O)[C@H](Cc2ccccc2)NC(=O)[C@@H]2CCCN2C(=O)[C@H](CC(C)C)N(C)C(=O)[C@H](Cc2ccccc2)NC(=O)[C@H](CC(C)C)NC(=O)[C@H]([C@@H](C)O)NC(=O)[C@H](C)N(C)C(=O)[C@H](C(C)C)NC(=O)[C@H](C)NC(=O)C[C@@H](C(=O)N2CCCCC2)NC(=O)[C@H](CC(C)C)NC(=O)CN(C)C1=O [DP-21] (AV[NMeA]TLF[NMeL]PFI[Sar]LD-Piperidide; lactam N-13)	–	microsomal CLint (human, microsomes, CL NADPH(+)): 25 µL/min/mg
C=C1CCC(=O)N[C@@H](CC(C)C)C(=O)N(C)[C@@H](CC(C)C)C(=O)N(C)[C@@H](Cc2ccccc2)C(=O)N[C@@H](C)C(=O)N(C)[C@@H](Cc2ccccc2)C(=O)N(C)[C@@H]([C@@H](C)CC)C(=O)N[C@@H]([C@@H](C)O)C(=O)N(C)CC(=O)N(C)[C@@H](CC(C)C)C(=O)N[C@H](C(=O)N2CCCCC2)Cc2ccc1cc2 [DP-854]	252 µL/min/mg	–
CC(C)C[C@@H]1NC(=O)[C@H](CC(C)C)N(C)C(=O)[C@H](CC(C)C)N(C)C(=O)[C@H](C)NC(=O)[C@H](Cc2ccccc2)N(C)C(=O)[C@H](CCC(=O)N(C)C)NC(=O)[C@H](CC(C)C)N(C)C(=O)[C@H](Cc2ccccc2)NC(=O)[C@H](C)NC(=O)C[C@@H](C(=O)N(C)[C@@H](Cc2ccccc2)C(=O)N[C@@H](C)C(=O)N2CCCCC2)NC1=O [DP-603] (AF[NMeL]E(NMe2)[NMeF]A[NMeL][NMeL]LD[NMeF]A-Piperidide; lactam N-10)	17 µL/min/mg	–
